Question: With `Cn1nc(NC2c3cc(C#N)ccc3OC(C)(C)C2O)ccc1=O` (centres undefined) as the molecule, how does the melting point read?
Answer: 117 to 119 °C

Question: For `COC(=O)c1c(OC(C)=O)cc2cc(Br)ccc2c1C`, which melting point is on record?
Answer: 78 °C

Question: With `COc1cc(Nc2nccc(-c3ccc(NC4CCN(Cc5ccccc5)CC4)nc3)n2)cc(OC)c1OC` as the molecule, how does the melting point read?
Answer: 113 to 114 °C

Question: For `CCN1CCC(=O)N(c2cc(Cl)ccc2C)C1=S`, which melting point is on record?
Answer: 142 to 145 °C

Question: With `CN(CCO)C(=O)Nc1ccc2c(c1)C(c1ccccc1F)=NCC(=O)N2C` as the molecule, how does the melting point read?
Answer: 196 to 198 °C

Question: Which melting point does the source give for `COC(=O)COc1ccc(-c2ccc[nH]2)cc1` here?
Answer: 136 to 137 °C

Question: With `CCOC(=O)Cc1ccc(Cc2nc3n(-c4c(Cl)cccc4Cl)[nH]c(C(C)C)c-3c(=O)n2)cc1` as the molecule, how does the melting point read?
Answer: 168 to 169 °C

Question: For `CCCCCCCCNC(=O)Nc1ccccc1C(=O)NCC1CCN(C(c2ccccc2)c2ccccc2)CC1`, which melting point is on record?
Answer: 155 to 157 °C

Question: Which melting point does the source give for `O=C(c1ccccc1)N1CCSc2cccc(Cl)c2C1` here?
Answer: 64 to 72 °C

Question: For `O=C(O)C(Cc1ccccc1)Nc1nccc(-c2ccc(OCc3ccccc3)cc2)n1` (centres undefined), which melting point is on record?
Answer: 174 °C

Question: With `O=C(O)/C=C/C(=O)c1ccoc1` as the molecule, how does the melting point read?
Answer: 104 to 106 °C

Question: For `CC(C)C(=O)NC1CCc2[nH]c3cc4c(cc3c2C1)OCO4` (centres undefined), which melting point is on record?
Answer: 198 to 200 °C

Question: Which melting point does the source give for `CC(CC(=O)c1ccccc1)C(=O)N1CSCC1C(=O)O` (centres undefined) here?
Answer: 182 to 183 °C

Question: Which melting point does the source give for `C[N+](C)([O-])S(=O)(=O)c1ccc2c(c1)N(C1CN3CCC1CC3)c1ccccc1S2=O` (centres undefined) here?
Answer: 130 °C

Question: For `CC(=O)OCC1OC(n2cc(C(Cl)=CI)c(=O)[nH]c2=O)C(OC(C)=O)C1OC(C)=O` (centres undefined), which melting point is on record?
Answer: 85 to 87 °C

Question: For `N#Cc1ccc(CNC(=O)c2cccc(C#CCn3cncn3)c2)cc1`, which melting point is on record?
Answer: 183 to 186 °C

Question: For `O=C(O)c1ccnc(-c2cccc3cc(Cc4cc(F)cc(Cl)c4)sc23)c1`, which melting point is on record?
Answer: 205 to 206 °C

Question: Which melting point does the source give for `COC(=O)C=C1SC(Nc2c(Cl)cccc2Cl)=NC1=O` here?
Answer: 189 to 190 °C

Question: Which melting point does the source give for `Cc1cnn(Cc2ccc3c(c2)-c2[nH]nc(-c4ccsc4)c2C3)c1` here?
Answer: 262 to 263 °C

Question: Which melting point does the source give for `COC(=O)[C@H]1C[C@H](NC(=O)Oc2ccccc2)c2c(Cl)cc(Cl)cc2N1` (relative stereo) here?
Answer: 159 to 161 °C

Question: With `CCNC(=O)[C@H]1N(C(=O)[C@@H](OC(C)=O)[C@H](Cc2ccccc2)NC(=O)c2cc(C)cc(OC(C)=O)c2C)CC(F)(F)C1(C)C` as the molecule, how does the melting point read?
Answer: 88 to 93 °C

Question: Which melting point does the source give for `Clc1ccc(CC2(c3ccccc3)OCC(CN3CCCCC3)O2)cc1` (centres undefined) here?
Answer: 58 °C

Question: With `Cc1ccc(-c2nc(Cc3cc4cc(N(OCc5ccccc5)C(N)=O)ccc4o3)c(C)o2)cc1` as the molecule, how does the melting point read?
Answer: 77 to 80 °C

Question: For `CC(=O)c1ccc(OCC(=O)NC2CCN(Cc3ccc(Cl)c(Cl)c3)CC2)cc1`, which melting point is on record?
Answer: 113 °C

Question: Which melting point does the source give for `NC(=Nc1ccc(-n2cccc2)c(CNC(=O)CCCCC2CCSS2)c1)c1cccs1` (centres undefined) here?
Answer: 156 to 158 °C

Question: For `C[C@H]1C[C@@](O)(c2cnc(Sc3ccc4c(c3)CC(=O)N4C)s2)CCO1`, which melting point is on record?
Answer: 140 °C

Question: With `COCc1cc(OC)c(-c2ccc(C[C@H](NC(=O)c3c(Cl)cccc3Cl)C(=O)O)cc2)c(OC)c1` as the molecule, how does the melting point read?
Answer: 232 to 235 °C

Question: For `O=C(O)C1CSC(c2ccccc2F)N1` (mixture of isomers), which melting point is on record?
Answer: 147 °C

Question: Which melting point does the source give for `CC(=O)OC1Cc2ccc(F)cc2/C1=C/C(N)=O` (centres undefined) here?
Answer: 202 to 203 °C

Question: For `COc1ccc2nc(-c3ccc(OC)c(F)c3)cc(Cl)c2c1`, which melting point is on record?
Answer: 112 to 116 °C

Question: Which melting point does the source give for `c1ccc(CSc2cn3ccsc3n2)cc1` here?
Answer: 76 to 77 °C

Question: For `O=C(NCCCCN1CCC(c2csc3ccccc23)CC1)c1ccc(-c2ccc(C(F)(F)F)cc2)cc1`, which melting point is on record?
Answer: 264 °C

Question: With `COc1cc(Nc2c(C#N)cnc3cc(-c4csc(CN5CCOCC5)c4)sc23)c(Cl)cc1Cl` as the molecule, how does the melting point read?
Answer: 209 to 212 °C

Question: Which melting point does the source give for `C(=C(c1ccccc1)N1CCCCC1)C1=NCCC1` here?
Answer: 123 to 124 °C

Question: Which melting point does the source give for `NCCCc1ccc(OCCC2Oc3ccccc3N(Cc3ccc(Cl)cc3)C2=O)cc1` (centres undefined) here?
Answer: 95 to 97 °C

Question: Which melting point does the source give for `Cc1ccccc1C(CCC(=O)O)Oc1cc(OCc2ccsc2)ccc1C#N` (centres undefined) here?
Answer: 143 °C

Question: For `N#Cc1c(N2CCCC2)cc(-c2ccccc2)c2c1C(=O)c1ccccc1-2`, which melting point is on record?
Answer: 166 to 168 °C

Question: For `NS(=O)(=O)c1cccc(-c2cn(-c3cc(-c4ccc(C(F)(F)F)cc4)cc(C(F)(F)F)n3)cn2)c1`, which melting point is on record?
Answer: > 250 °C

Question: For `COc1ccc(C#N)cc1C=NO`, which melting point is on record?
Answer: 142 to 144 °C

Question: With `CCCCCCCCCCCCc1ccc(C#Cc2c3ccccc3c(C#Cc3ccc(CCCCCCCCCCCC)cc3)c3ccccc23)cc1` as the molecule, how does the melting point read?
Answer: 111 to 113 °C

Question: With `Cc1c(CCC(=O)O)c[nH]c1C=O` as the molecule, how does the melting point read?
Answer: 128 to 134 °C

Question: Which melting point does the source give for `COC(=O)c1cc(=O)c2cc(OC)c(=O)ccc2n1C` here?
Answer: 181 to 183 °C

Question: Which melting point does the source give for `CCOC(=O)c1cccc(-c2cc(C(=O)OCC)c(N)[nH]2)c1` here?
Answer: 136 to 137 °C

Question: Which melting point does the source give for `OC1CSC(Oc2ccccn2)C(O)C1O` (centres undefined) here?
Answer: 196 °C

Question: With `Oc1ccc2[nH]cc(CCN3CCC(O)(c4ccccc4)CC3)c2c1` as the molecule, how does the melting point read?
Answer: 150 °C

Question: For `COC(=O)c1ccc(C(=O)Nc2ccc3c(c2)C(C)(C)CCC3(C)C)nc1`, which melting point is on record?
Answer: 176 to 177 °C

Question: For `COc1ccc(-c2sc3cc(OC)ccc3c2Br)cc1`, which melting point is on record?
Answer: 83 °C

Question: For `O=C(c1cccnc1)N1CCC(c2ccc(Br)cc2)=N1`, which melting point is on record?
Answer: 117 to 119 °C

Question: For `COc1ccc(-c2sc(C=NO)c(-c3cccc(OC)c3)c2C)cc1`, which melting point is on record?
Answer: 122 to 141 °C

Question: With `S=c1[nH]cnn1C[C@]1(c2ccccc2)O[C@@H]1c1ccc(Cl)c(Cl)c1Cl` (relative stereo) as the molecule, how does the melting point read?
Answer: 168 to 171 °C

Question: Which melting point does the source give for `COC(=O)c1ccc(Cc2c[nH]c3ccc(C(=O)OC)cc23)c(OC)c1` here?
Answer: 136 to 138 °C

Question: With `CC1(C)CCC(C)(C)c2cc(NCC(=O)O)ccc21` as the molecule, how does the melting point read?
Answer: > 360 °C

Question: For `Nc1c(I)c(C(=O)NCC(O)CO)c(I)c(C(=O)NCC(O)CO)c1I` (single isomer, unassigned; (-)), which melting point is on record?
Answer: 203 °C

Question: For `O=C(C#CCCc1cccc(CF)n1)Nc1ccc(F)cc1`, which melting point is on record?
Answer: 110 °C

Question: With `COC(=O)c1cc(C(=O)NN2CCCCC2)c2cc(Cc3ccc(F)cc3)cnc2c1O` as the molecule, how does the melting point read?
Answer: 233 to 234 °C

Question: For `CCNC(=O)ON=C(C)C1=CCCN(C)C1`, which melting point is on record?
Answer: 74 to 78 °C

Question: With `O=C(NC1CC2CC(N3CCN(c4ccccc4)CC3)CC2C1)c1ccccc1` (centres undefined) as the molecule, how does the melting point read?
Answer: 211 to 212 °C

Question: Which melting point does the source give for `Cc1cc(C)nc(NC(=NO)NS(=O)(=O)c2ccccc2Cl)n1` here?
Answer: 165 to 167 °C

Question: Which melting point does the source give for `Cc1ccc(-c2ccccc2C2=NC(C)(C)CO2)cc1` here?
Answer: 56 to 59 °C

Question: With `O=C(O)C1=Cc2cc(Cl)c(Oc3ccc(C(=O)O)cc3)cc2OC1C(F)(F)F` (centres undefined) as the molecule, how does the melting point read?
Answer: > 300 °C

Question: For `COCCc1nc2c(N)nc3ccccc3c2n1CCCNC(=S)NC1CCCCC1`, which melting point is on record?
Answer: 199 to 200 °C

Question: For `CCc1c(-c2ccc(O)cc2)c2cc(COCCN(CC)CC)c3cccc1n32`, which melting point is on record?
Answer: 93 to 95 °C

Question: For `CC(C)(C)C(=O)C(Br)C(c1ccc(Cl)cc1Cl)S(=O)(=O)c1ccccc1` (centres undefined), which melting point is on record?
Answer: 135 to 136 °C

Question: Which melting point does the source give for `Nc1ncnc2c1ncn2C1CC(O)(C(=O)c2cccc(C(F)(F)F)c2)C(COC(=O)c2cccc(C(F)(F)F)c2)O1` (centres undefined) here?
Answer: 160 °C

Question: With `COC(=O)OCCNC(=O)C(F)(F)Cc1c[nH]c([N+](=O)[O-])n1` as the molecule, how does the melting point read?
Answer: 50.5 to 52.5 °C

Question: With `OCC1=C(c2cc3c(Cl)cccc3s2)N2CCN=C2S1` as the molecule, how does the melting point read?
Answer: 170 to 172 °C

Question: Which melting point does the source give for `COC(=O)CCc1cc2cc(Cl)ccc2n1S(=O)(=O)c1ccc(C(C)=O)cc1` here?
Answer: 83 to 87 °C

Question: For `C=CCc1cc(C(=O)CC(=O)C(C)(C)C)cc(OC)c1O`, which melting point is on record?
Answer: 115 to 116 °C

Question: With `OC[C@H]1C2CCC(C2)[C@@H]1CO` as the molecule, how does the melting point read?
Answer: 58 °C

From a melting point compilation (Tetko et al.; mined from patent text by program, amines drawn as free bases though some values may be those of a salt)
